Reference: patent publication US20040087558A1, “Methods of using and compositions comprising selective cytokine inhibitory drugs for treatment, modification and management of pain” (priority 2002, published 2004)

Key:
TNF-α production = test: Inhibition of TNF-α production following LPS-stimulation of human PBMC and human whole blood; type: cell-based; conditions: in vitro studies; compared with thalidomide
Experimental: In a specific embodiment, the pharmacological properties of 3-(3,4-dimethoxy-phenyl)-3-(1-oxo-1,3-dihydro-isoindol-2-yl)-propionamide are characterized in in vitro studies. Studies examine the effects of the compound on the production of various cytokines. Inhibition of TNF-α production following LPS-stimulation of human PBMC and human whole blood by the compound is investigated in vitro. The IC50's of the compound for inhibiting production of TNF-α are measured. […] The pharmacological effects of 3-(3,4-dimethoxy-phenyl)-3-(1-oxo-1,3-dihydro-isoindol-2-yl)-propionamide may derive from its action as an inhibitor of the generation of inflammatory cytokines.

[1] = Cardiovascular and respiratory function in anesthetized dogs; type: in vivo; conditions: anesthetized Beagle dogs; ascending doses 400, 800 and 1,200 mg/kg/day by infusion through the jugular vein
Experimental: The effects of 3-(3,4-dimethoxy-phenyl)-3-(1-oxo-1,3-dihydro-isoindol-2-yl)-propionamide on cardiovascular and respiratory function are investigated in anesthetized dogs. Two groups of Beagle dogs (2/sex/group) are used. One group receives three doses of vehicle only and the other receives three ascending doses of 3-(3,4-dimethoxy-phenyl)-3-(1-oxo-1,3-dihydro-isoindol-2-yl)-propionamide (400, 800, and 1,200 mg/kg/day). In all cases, doses of 3-(3,4-dimethoxy-phenyl)-3-(1-oxo-1,3-dihydro-isoindol-2-yl)-propionamide or vehicle are successively administered via infusion through the jugular vein separated by intervals of at least 30 minutes.

[2] = Clinical study in pain patients with upper extremity CRPS; type: in vivo, human; conditions: 1,200 mg as a continuous oral daily dose
Experimental: Selective cytokine inhibitory drugs of the invention such as 3-(3,4-dimethoxy-phenyl)-3-(1-oxo-1,3-dihydro-isoindol-2-yl)-propionamide are administered in an amount of 400 to 1,200 mg per day to patients with pain syndromes for three to six months. A baseline evaluation is performed for the effect of the drug treatment on pain intensity, impact of pain on activities of daily living, and consumption of other pain medications.
In a specific embodiment, clinical studies are performed in pain patients who have upper extremity CRPS that has not responded to conventional physical therapy and has been present for at least one year. In the early course of their diseases, patients have clear evidence of autonomic dysfunction with formal autonomic testing (Quantitative sudomotor axon reflex test (QSART), resting sweat output, and thermography). If this is unavailable, documentation of clinical signs indicates autonomic dysfunction (changes in hydration, temperature, skin, nail or hair growth) along with symptoms of allodynia and swelling. […] Responses are assessed using standard pain scales, e.g., Numeric Pain Scale Assessment (VAS) for pain, quality of life using the McGill Index and objective signs in clinical examination such as a visible reduction of swelling, sweating, discolorations in skin color, temperature changes, changes in skin, hair and nail growth, and fine motor movements. […]

[3] = 8 to 10 mg/kg i.p.; acute pain assays; cited from earlier work

Structure (SMILES)	pharmacological activity profile, potency relative to thalidomide (TNF-α production)	cardiovascular and respiratory changes compared to the vehicle control group [1]	tolerability [2]	anti-nociceptive response [3]
COc1ccc(C(CC(N)=O)N2Cc3ccccc3C2=O)cc1OC (stereo not shown) [3-(3,4-dimethoxy-phenyl)-3-(1-oxo-1,3-dihydro-isoindol-2-yl)-propionamide]	five to fifty	minimal at all doses	well-tolerated	
CN1CC[C@]23c4c5ccc(O)c4O[C@H]2[C@@H](O)C=C[C@H]3[C@H]1C5 [morphine]				near-maximal anti-nociceptive response
